One molecule from PMC6920703, “Measuring glycolytic flux in single yeast cells with an orthogonal synthetic biosensor” (Molecular Systems Biology, 2019) can be followed below.

Structures are written as SMILES.

The target in this experiment is T1, wild-type CggR (Bacillus subtilis, UniProt O32253).
T1 sequence (O32253 1-340): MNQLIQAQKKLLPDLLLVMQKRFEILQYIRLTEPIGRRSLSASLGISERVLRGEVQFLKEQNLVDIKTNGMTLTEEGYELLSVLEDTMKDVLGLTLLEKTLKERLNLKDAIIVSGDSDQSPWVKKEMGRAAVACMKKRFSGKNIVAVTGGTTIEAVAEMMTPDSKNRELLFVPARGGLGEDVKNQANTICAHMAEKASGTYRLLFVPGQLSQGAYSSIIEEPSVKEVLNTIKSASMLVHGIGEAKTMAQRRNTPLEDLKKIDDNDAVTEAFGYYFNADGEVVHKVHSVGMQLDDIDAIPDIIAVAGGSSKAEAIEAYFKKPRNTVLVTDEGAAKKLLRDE
Kind of experiment: Thermal shift assay of purified CggR with SYPRO Orange and 0-36 mM FBP (20 to 99 °C in 0.5 °C steps, NaCl counter-ion controls), no DNA; KD from fitting Tm data to a simple cooperative binding model in GraphPad. The source says:
We generated these CggR mutants with site‐directed mutagenesis, expressed in E. coli, purified, and biochemically characterized them. To this end, we used thermal shift assays to assess protein stability and ligand binding.
Figure 5 Biochemical characterization of CggR and respective mutants • Thermal shift assays were used to determine the melting curves of wild‐type CggR and mutants. Error bars correspond to the standard deviation of at least five replicates. • CggR‐FBP affinity constants (KD's) of the wild type and mutant variants, determined by fitting a simple cooperative binding model to the melting curves data. Error bars indicate the 95% confidence intervals. • Quantification of CggR binding to DNA. The CggR bound to DNA fraction was calculated by dividing the intensity of the protein–DNA complex band by the total DNA. The background‐subtracted total intensities of the CggR–DNA complex and the free‐DNA bands were assessed with ImageJ. Error bars correspond to the standard deviation of three replicate experiments for the mutants and six for the wild type. • Summary of the biochemical characterization of the wild type and mutant CggR variants. […]
The K D of the wild type and mutant CggR variants was calculated by fitting the T m data into a simple cooperative model using the GraphPad software.

In general, Kd refers to the concentration at which binding is half-saturated. Consider `O=P(O)(O)OC[C@H]1OC(O)(COP(=O)(O)O)[C@@H](O)[C@@H]1O` (stereo partly shown) [FBP, fructose-1,6-bisphosphate], for which the Kd worked out at 1 mM.
